This passage reports EC50 results from patent US8071568B2, “Nucleoside aryl phosphoramidates for the treatment of RNA-dependent RNA viral infection” (Merck Sharp & Dohme Corp., priority 2007, dated 2011).

The assay has as its system Hepatitis C Virus RNA in cultured hepatoma (HuH-7) cells containing a subgenomic HCV Replicon. The assay can be described thus: Assay for inhibition of HCV RNA replication (replicon assay, in situ ribonuclease protection SPA). The assay is classed as cell-based.
Setting [1] is: Hepatitis C virus, Huh-7, read-out: Replicon Assay EC50.
Setting [2] is: Hepatitis C virus, Huh-7, read-out: Replicon Assay EC50, first eluting diastereomer, HuH-7 subgenomic HCV replicon.
Where [3] appears, read: Hepatitis C virus, Huh-7, read-out: Replicon Assay EC50, second eluting diastereomer, HuH-7 subgenomic HCV replicon.
Where [4] appears, read: mixture of diastereomers tested, HuH-7 subgenomic HCV replicon, read-out: Replicon Assay EC50.

Where two headings read alike, the source gives them in different places. Where only a bound is given, the exact number is not on record here.

What is called EC50 is the concentration giving half of the maximal effect. Consider `CCCC(=O)OC[C@H](C)NP(=O)(OC[C@H]1O[C@@H](n2ccc(N)nc2=O)[C@](C)(O)[C@@H]1O)Oc1ccccc1` (mixture of isomers) [Example 2, 5′-O-[{[(±)-2-(Butyryloxy)-1-methylethyl]-amino}-(phenoxy)-phosphoryl]-2′-C-methylcytidine], for which the EC50 reads like this: under setting [1], 2800 nM; (read-out: Replicon Assay EC50) 4000 nM.

In the case of `C[C@@H](COC(=O)C(C)(C)C)NP(=O)(OC[C@H]1O[C@@H](n2ccc(N)nc2=O)[C@](C)(O)[C@@H]1O)Oc1ccccc1` (single isomer, unassigned) [Example 1], the half-maximal effective concentration (EC50) came out at 1600 nM under setting [1] and 900 nM (read-out: Replicon Assay EC50).

`CC[C@H](C)[C@@H](COC(=O)C(C)(C)C)NP(=O)(OC[C@H]1O[C@@H](n2ccc(N)nc2=O)[C@](C)(O)[C@@H]1O)Oc1ccccc1` (single isomer, unassigned) [Example 6]: the EC50 reads like this: under setting [1], 2000 nM; (read-out: Replicon Assay EC50) 1800 nM.

In the case of `CC(C)C(=O)OC[C@H](Cc1ccccc1)NP(=O)(OC[C@H]1O[C@@H](n2ccc(N)nc2=O)[C@](C)(O)[C@@H]1O)Oc1ccccc1` (single isomer, unassigned) [Example 11], the 50% effective concentration (EC50) under setting [1] was found to be 500 nM and the EC50 (read-out: Replicon Assay EC50) was 900 nM.

On to `CC(C)C(=O)O[C@@H](C)CNP(=O)(OC[C@H]1O[C@@H](n2ccc(N)nc2=O)[C@](C)(O)[C@@H]1O)Oc1ccccc1` (single isomer, unassigned) [Example 12], for which the EC50 was determined as 2200 nM under setting [1] and 2400 nM (read-out: Replicon Assay EC50).

Consider `C[C@@]1(O)[C@H](O)[C@@H](COP(=O)(NCCOC(=O)c2ccccc2)Oc2ccccc2)O[C@H]1n1ccc(N)nc1=O` (single isomer, unassigned) [Example 16, cytidine, 5′-O-[[[2-(benzoyloxy)ethyl]amino]phenoxyphosphinyl]-2′-C-methyl-], for which the EC50 is, setting by setting: under setting [2], 2200 nM; under setting [3], 5000 nM.

For `CCC(CC)C(=O)OCCNP(=O)(OC[C@H]1O[C@@H](n2ccc(N)nc2=O)[C@](C)(O)[C@@H]1O)Oc1ccccc1` (single isomer, unassigned) [Example 20, 5′-O-[({2-[(2-ethylbutanoyl)oxy]ethyl}amino)(phenoxy)phosphoryl]-2′-C-methylcytidine], the EC50 by setting is: under setting [2], 2800 nM; under setting [3], 600 nM.

As to `C[C@@]1(O)[C@H](O)[C@@H](COP(=O)(NCCOC(=O)C2CCCCCC2)Oc2ccccc2)O[C@H]1n1ccc(N)nc1=O` (single isomer, unassigned) [Example 21, 5′-O-[({2-[(cycloheptylcarbonyl)oxy]ethyl}amino)(phenoxy)phosphoryl]-2′-C-methylcytidine], the EC50 by setting is: under setting [2], 700 nM; under setting [3], 1200 nM.

With `CC(C)C(=O)O[C@@H]1CCN(P(=O)(OC[C@H]2O[C@@H](n3ccc(N)nc3=O)[C@](C)(O)[C@@H]2O)Oc2ccccc2)C1` (single isomer, unassigned) [Example 22], the concentration for a half-maximal effect (EC50) reads like this: under setting [2], above 5000 nM; under setting [3], above 5000 nM.

As to `CC(C)(C)C(=O)OC[C@H](Cc1ccccc1)NP(=O)(OC[C@H]1O[C@@H](n2ccc(N)nc2=O)[C@](C)(O)[C@@H]1O)Oc1ccccc1` (stereo partly drawn) [Example 8, 5′-O-[[[(1S)-2-[(2,-dimethyl-1-oxopropoxy)-1-(phenylmethyl)]-ethyl]amino]-(phenoxy)-phosphinyl]-2′-C-methylcytidine], under setting [4], the EC50 turned out to be 1000 nM.

In the case of `CC1(C)O[C@@H]2[C@@H](COP(=O)(N[C@H](COC(=O)C(C)(C)C)Cc3ccccc3)Oc3ccccc3)O[C@@H](n3ccc(N)nc3=O)[C@]2(C)O1` (stereo partly drawn) [Example 14, cytidine, 5′-O-[[[(1S)-2-(2,2-dimethyl-1-oxopropoxy)-1-(phenylmethyl)ethyl]amino]phenoxyphosphinyl]-2′-C-methyl-2′,3′-O-(1-methylethylidene)-], the EC50 was above 5000 nM (first eluting diastereomer, HuH-7 subgenomic HCV replicon, read-out: Replicon Assay EC50) and above 5000 nM (second eluting diastereomer, HuH-7 subgenomic HCV replicon, read-out: Replicon Assay EC50).

In the case of `CCCCC(COC(=O)C(C)(C)C)NP(=O)(OCC1OC(n2ccc(N)nc2=O)C2(C)OC(C)(C)OC12)Oc1ccccc1` [Example 15, cytidine, 5′-O-[[[(1S)-1-[(2,2-dimethyl-1-oxopropoxy)methyl]pentyl]amino]phenoxyphosphinyl]-2′-C-methyl-2′,3′-O-(1-methylethylidene)-], the concentration for a half-maximal effect (EC50) under setting [4] was above 10000 nM.
